Tested on: Rattus norvegicus
Experiment: Antihyperglycemic activity in sucrose loaded diabetic Sprague-Dawley rat model assessed as reduction of plasma glucose levels at 100 mg/kg, po
Type: functional
Design: scale not given: the % may be the effect or the level left

SMILES | Activity [%]
COc1cc(/C=C/C(=O)NCCc2ccc(OC)c(OC)c2)ccc1O | 30.7
COc1ccc(CCNC(=O)/C=C/c2cc(OC)c(OC)c(OC)c2)cc1OC | 2.41
COc1ccc(/C=C/C(=O)NCCc2ccc(OC)c(OC)c2)cc1 | 19.5
COc1ccc(CCNC(=O)/C=C/c2ccccc2)cc1OC | 20.1
COc1ccc(CCNC(=O)/C=C/c2ccc(F)cc2)cc1OC | 23.4
COc1ccc(CCNC(=O)/C=C/c2ccc(Cl)cc2)cc1OC | 21.5
COc1ccc(CCNC(=O)/C=C/c2cccc(C(F)(F)F)c2)cc1OC | 32.8
O=C(/C=C/c1ccccc1)Nc1cc2ccccc2oc1=O | 22.3
CC(C)(C)c1cc(C(C)(C)C)c2oc(=O)c(NC(=O)/C=C/c3cccc(C(F)(F)F)c3)cc2c1 | 21.1
O=C(Nc1cc2ccccc2oc1=O)c1ccccc1 | 10.7
CC(C)(C)c1cc(C(C)(C)C)c2oc(=O)c(NC(=O)c3ccccc3)cc2c1 | 23.3
COc1cccc(/C=C/C(=O)NCCc2ccc(OC)c(OC)c2)c1 | 25.2
CC(C)(C)c1cc(C(C)(C)C)c2oc(=O)c(NC(=O)/C=C/c3ccccc3)cc2c1 | 8.89
COc1ccc(Cl)cc1C(=O)NCCc1ccc(S(=O)(=O)NC(=O)NC2CCCCC2)cc1 [GLYBURIDE] | 33.7
CN(C)C(=N)NC(=N)N [METFORMIN] | 12.9

— ChEMBL document CHEMBL1141549, “Synthesis and antihyperglycemic activity of novel N-acyl-2-arylethylamines and N-acyl-3-coumarylamines” (2008)
